Test results reported in patent US8623907B2, “Herbicides” (Syngenta Participations, AG, priority 2008, dated 2014).

How the values were obtained:
Format in all cases: in vivo
[1] = test system: Digitaria sanguinalis (DIGSA); experiment: Test Example 1, pre-emergence herbicidal activity; conditions: Rate 500 g/ha; evaluated 20 days later; 100=total damage to plant, 0=no damage to plant
Protocol: (§1) Monocotyledonous and dicotyledonous test plants were sown in standard soil in pots. After cultivation for one day (pre-emergence) or after 10 days cultivation (post-emergence) under controlled conditions in a glasshouse, the plants were sprayed with an aqueous spray solution derived from the formulation of the technical active ingredient in 0.6 ml acetone and 45 ml formulation solution containing 10.6% Emulsogen EL (Registry number 61791-12-6), 42.2% N-methylpyrrolidone, 42.2% dipropylene glycol monomethyl ether (Registry number 34590-94-8) and 0.2% X-77 (Registry number 11097-66-8). The test plants were then grown in a greenhouse under optimum conditions until, 15 days later for post-emergence and 20 days for pre-emergence, the test was evaluated (100=total damage to plant; 0=no damage to plant). Alopecurus myosuroides (ALOMY), Avena fatua (AVEFA), Lolium perenne (LOLPE), Setaria faberi (SETFA), Digitaria sanguinalis (DIGSA), Echinochloa crus-galli (ECHCG)

Setaria faberi (SETFA) [2] = experiment: Test Example 1, pre-emergence herbicidal activity; conditions: Rate 500 g/ha; evaluated 20 days later; 100=total damage to plant, 0=no damage to plant
Protocol: as §1

Avena fatua (AVEFA) [3] = experiment: Test Example 1, pre-emergence herbicidal activity; conditions: Rate 500 g/ha; evaluated 20 days later; 100=total damage to plant, 0=no damage to plant
Protocol: as §1

[4] = test system: Echinochloa crus-galli (ECHCG); experiment: Test Example 1, pre-emergence herbicidal activity; conditions: Rate 500 g/ha; evaluated 20 days later; 100=total damage to plant, 0=no damage to plant
Protocol: as §1

Lolium perenne (LOLPE) [5] = experiment: Test Example 1, pre-emergence herbicidal activity; conditions: Rate 500 g/ha; evaluated 20 days later; 100=total damage to plant, 0=no damage to plant
Protocol: as §1

[6] = test system: Alopecurus myosuroides (ALOMY); experiment: Test Example 1, pre-emergence herbicidal activity; conditions: Rate 500 g/ha; evaluated 20 days later; 100=total damage to plant, 0=no damage to plant
Protocol: as §1

[7] = test system: Digitaria sanguinalis (DIGSA); experiment: Test Example 1, post-emergence herbicidal activity; conditions: Rate 500 g/ha; evaluated 15 days later; 100=total damage to plant, 0=no damage to plant
Protocol: as §1

Setaria faberi (SETFA) [8] = experiment: Test Example 1, post-emergence herbicidal activity; conditions: Rate 500 g/ha; evaluated 15 days later; 100=total damage to plant, 0=no damage to plant
Protocol: as §1

Avena fatua (AVEFA) [9] = experiment: Test Example 1, post-emergence herbicidal activity; conditions: Rate 500 g/ha; evaluated 15 days later; 100=total damage to plant, 0=no damage to plant
Protocol: as §1

[10] = test system: Echinochloa crus-galli (ECHCG); experiment: Test Example 1, post-emergence herbicidal activity; conditions: Rate 500 g/ha; evaluated 15 days later; 100=total damage to plant, 0=no damage to plant
Protocol: as §1

Lolium perenne (LOLPE) [11] = experiment: Test Example 1, post-emergence herbicidal activity; conditions: Rate 500 g/ha; evaluated 15 days later; 100=total damage to plant, 0=no damage to plant
Protocol: as §1

[12] = test system: Alopecurus myosuroides (ALOMY); experiment: Test Example 1, post-emergence herbicidal activity; conditions: Rate 500 g/ha; evaluated 15 days later; 100=total damage to plant, 0=no damage to plant
Protocol: as §1

Setaria faberi (SETFA) [13] = experiment: Test Example B, post-emergence herbicidal activity; conditions: Rate 250 g/ha; evaluated after 13 days; 100=total damage to plant, 0=no damage to plant
Protocol: (§2) Seeds of a variety of test species were sown in standard soil in pots. After cultivation for one day (pre-emergence) or after 8 days cultivation (post-emergence) under controlled conditions in a glasshouse (at 24/16° C., day/night; 14 hours light; 65% humidity), the plants were sprayed with an aqueous spray solution derived from the formulation of the technical active ingredient in acetone/water (50:50) solution containing 0.5% Tween 20 (polyoxyethelyene sorbitan monolaurate, CAS RN 9005-64-5). The test plants were then grown in a glasshouse under controlled conditions in a glasshouse (at 24/16° C., day/night; 14 hours light; 65% humidity) and watered twice daily. After 13 days for pre and post-emergence, the test was evaluated (100=total damage to plant; 0=no damage to plant). Alopecurus myosuroides (ALOMY), Avena fatua (AVEFA), Setaria faberi (SETFA), Echinochloa crus-galli (ECHCG), Solanum nigrum (SOLNI) and Amaranthus retroflexus (AMARE)

Solanum nigrum (SOLNI) [14] = experiment: Test Example B, post-emergence herbicidal activity; conditions: Rate 250 g/ha; evaluated after 13 days; 100=total damage to plant, 0=no damage to plant
Protocol: as §2

Avena fatua (AVEFA) [15] = experiment: Test Example B, post-emergence herbicidal activity; conditions: Rate 250 g/ha; evaluated after 13 days; 100=total damage to plant, 0=no damage to plant
Protocol: as §2

[16] = test system: Echinochloa crus-galli (ECHCG); experiment: Test Example B, post-emergence herbicidal activity; conditions: Rate 250 g/ha; evaluated after 13 days; 100=total damage to plant, 0=no damage to plant
Protocol: as §2

[17] = test system: Amaranthus retroflexus (AMARE); experiment: Test Example B, post-emergence herbicidal activity; conditions: Rate 250 g/ha; evaluated after 13 days; 100=total damage to plant, 0=no damage to plant
Protocol: as §2

[18] = test system: Alopecurus myosuroides (ALOMY); experiment: Test Example B, post-emergence herbicidal activity; conditions: Rate 250 g/ha; evaluated after 13 days; 100=total damage to plant, 0=no damage to plant
Protocol: as §2

Setaria faberi (SETFA) [19] = experiment: Test Example B, pre-emergence herbicidal activity; conditions: Rate 250 g/ha; evaluated after 13 days; 100=total damage to plant, 0=no damage to plant
Protocol: as §2

Solanum nigrum (SOLNI) [20] = experiment: Test Example B, pre-emergence herbicidal activity; conditions: Rate 250 g/ha; evaluated after 13 days; 100=total damage to plant, 0=no damage to plant
Protocol: as §2

Avena fatua (AVEFA) [21] = experiment: Test Example B, pre-emergence herbicidal activity; conditions: Rate 250 g/ha; evaluated after 13 days; 100=total damage to plant, 0=no damage to plant
Protocol: as §2

[22] = test system: Echinochloa crus-galli (ECHCG); experiment: Test Example B, pre-emergence herbicidal activity; conditions: Rate 250 g/ha; evaluated after 13 days; 100=total damage to plant, 0=no damage to plant
Protocol: as §2

[23] = test system: Amaranthus retroflexus (AMARE); experiment: Test Example B, pre-emergence herbicidal activity; conditions: Rate 250 g/ha; evaluated after 13 days; 100=total damage to plant, 0=no damage to plant
Protocol: as §2

[24] = test system: Alopecurus myosuroides (ALOMY); experiment: Test Example B, pre-emergence herbicidal activity; conditions: Rate 250 g/ha; evaluated after 13 days; 100=total damage to plant, 0=no damage to plant
Protocol: as §2

SMILES | Pre-Emergence Activity DIGSA (damage to plant) [1] | Pre-Emergence Activity SETFA (damage to plant) (Setaria faberi (SETFA) [2]) | Pre-Emergence Activity AVEFA (damage to plant) (Avena fatua (AVEFA) [3]) | Pre-Emergence Activity ECHCG (damage to plant) [4] | Pre-Emergence Activity LOLPE (damage to plant) (Lolium perenne (LOLPE) [5]) | Pre-Emergence Activity ALOMY (damage to plant) [6] | Post-Emergence Activity DIGSA (damage to plant) [7] | Post-Emergence Activity SETFA (damage to plant) (Setaria faberi (SETFA) [8]) | Post-Emergence Activity AVEFA (damage to plant) (Avena fatua (AVEFA) [9]) | Post-Emergence Activity ECHCG (damage to plant) [10] | Post-Emergence Activity LOLPE (damage to plant) (Lolium perenne (LOLPE) [11]) | Post-Emergence Activity ALOMY (damage to plant) [12] | Post-Emergence Activity SETFA (damage to plant) (Setaria faberi (SETFA) [13]) | Post-Emergence Activity SOLNI (damage to plant) (Solanum nigrum (SOLNI) [14]) | Post-Emergence Activity AVEFA (damage to plant) (Avena fatua (AVEFA) [15]) | Post-Emergence Activity ECHCG (damage to plant) [16] | Post-Emergence Activity AMARE (damage to plant) [17] | Post-Emergence Activity ALOMY (damage to plant) [18] | Pre-Emergence Activity SETFA (damage to plant) (Setaria faberi (SETFA) [19]) | Pre-Emergence Activity SOLNI (damage to plant) (Solanum nigrum (SOLNI) [20]) | further results
CCc1ccc(-c2ccc(Cl)cc2Cl)cc1C1([N+](=O)[O-])C(=O)C(C)(C)OC(C)(C)C1=O [Compound A1, 4-(2′,4′-dichloro-4-ethylbiphen-3-yl)-2,2,6,6-tetramethyl-4-nitropyran-3,5-dione] | 70 | 0 | 30 | 20 | 30 | 20 | 100 | 100 | 70 | 100 | 100 | 60 | – | – | – | – | – | – | – | – | –
CCc1ccc(-c2ccc(Cl)cc2Cl)cc1C1(Cl)C(=O)C(C)(C)OC(C)(C)C1=O [Compound A2, 4-chloro-4-(2′,4′-dichloro-4-ethylbiphen-3-yl)-2,2,6,6-tetramethylpyran-3,5-dione] | 90 | 90 | 50 | 90 | 70 | 0 | 100 | 100 | 80 | 100 | 100 | 60 | – | – | – | – | – | – | – | – | –
Cc1ccc(-c2ccc(Cl)cc2)cc1C1(Cl)C(=O)COC(C)(C)C1=O (stereo not drawn) [Compound A3, 4-chloro-4-(4′-chloro-4-methylbiphenyl-3-yl)-2,2-dimethylpyran-3,5-dione] | – | – | – | – | – | – | – | – | – | – | – | – | 80 | 0 | 0 | 80 | 0 | 0 | 0 | 0 | Pre-Emergence Activity AVEFA (damage to plant) (Avena fatua (AVEFA) [21]): 0; Pre-Emergence Activity ECHCG (damage to plant) [22]: 50; Pre-Emergence Activity AMARE (damage to plant) [23]: 0; Pre-Emergence Activity ALOMY (damage to plant) [24]: 0
Cc1ccc(-c2ccc(Cl)cc2)cc1C1(Cl)C(=O)C(C)(C)OC(C)(C)C1=O [Compound A4, 4-Chloro-4-(4′-chloro-4-methylbiphenyl-3-yl)-2,2,6,6-tetramethyl-pyran-3,5-dione] | – | – | – | – | – | – | – | – | – | – | – | – | 100 | 0 | 90 | 100 | 0 | 100 | 100 | 0 | Pre-Emergence Activity AVEFA (damage to plant) (Avena fatua (AVEFA) [21]): 70; Pre-Emergence Activity ECHCG (damage to plant) [22]: 100; Pre-Emergence Activity AMARE (damage to plant) [23]: 0; Pre-Emergence Activity ALOMY (damage to plant) [24]: 30
